The source of these data is patent US5643872A, “Cyclic anti-aggregatory peptides” (SmithKline Beecham Corporation, priority 1994, dated 1997).

By IC50 is commonly meant the concentration needed to halve the response being measured.

Read-outs that look alike come from different tables or passages of the source. Square brackets hold non-standard residues; d marks the D form. Peptide text beside a SMILES is read from it. A value given as a limit tells only on which side of the number the result lay.

For series [1] the following is noted: amide bond, DMF.
A further series concerns the target dog platelets (Canis lupus familiaris, UniProt A0A8I3N5G5+A0A8I3PMU9). To be noted: read-out: IC50 for the aggregation of dog platelets stimulated by ADP; agonist ADP; peptides added 3 min prior to the agonist; light transmittance 5 min after agonist. The procedure:
Inhibition of Platelet Aggregation
Blood was collected (citrated to prevent coagulation) from, naive, adult mongrel dogs. Platelet rich plasma, PRP, was prepared by centrifugation at 150×g for 10 min at room temperature. Washed platelets were prepared by centrifuging PRP at 800×g for 10 min. The cell pellet thus obtained was washed twice in Tyrode's buffer (pH 6.5) without Ca^++ and resuspended in Tyrode's buffer (pH 7.4) containing 1.8 mM Ca^++ at […]. Peptides were added 3 min prior to the agonist in all assays of platelet aggregation. Final agonist concentrations were 0.1 unit/ml thrombin and […] (Sigma). Aggregation was monitored in a Chrono-Log Lumi-Aggregometer. Light transmittance 5 min after addition of the agonist was used to calculate percent aggregation according to the formula % aggregation=[(90-CR)[…](90-10)]×100, where CR is the chart reading, 90 is the baseline, and 10 is the PRP blank reading. IC50 's were determined by plotting [% inhibition of aggregation] vs. [concentration of peptide]. Peptides were assayed at […] and diluted sequentially by a factor of 2 to establish a suitable dose response curve.

Where [2] appears, read: the molecule shown is the open-chain precursor, 20-membered ring, BOP/DIEA, resin, with chain assembly.

Chain of dog platelets (A0A8I3N5G5 1-1047): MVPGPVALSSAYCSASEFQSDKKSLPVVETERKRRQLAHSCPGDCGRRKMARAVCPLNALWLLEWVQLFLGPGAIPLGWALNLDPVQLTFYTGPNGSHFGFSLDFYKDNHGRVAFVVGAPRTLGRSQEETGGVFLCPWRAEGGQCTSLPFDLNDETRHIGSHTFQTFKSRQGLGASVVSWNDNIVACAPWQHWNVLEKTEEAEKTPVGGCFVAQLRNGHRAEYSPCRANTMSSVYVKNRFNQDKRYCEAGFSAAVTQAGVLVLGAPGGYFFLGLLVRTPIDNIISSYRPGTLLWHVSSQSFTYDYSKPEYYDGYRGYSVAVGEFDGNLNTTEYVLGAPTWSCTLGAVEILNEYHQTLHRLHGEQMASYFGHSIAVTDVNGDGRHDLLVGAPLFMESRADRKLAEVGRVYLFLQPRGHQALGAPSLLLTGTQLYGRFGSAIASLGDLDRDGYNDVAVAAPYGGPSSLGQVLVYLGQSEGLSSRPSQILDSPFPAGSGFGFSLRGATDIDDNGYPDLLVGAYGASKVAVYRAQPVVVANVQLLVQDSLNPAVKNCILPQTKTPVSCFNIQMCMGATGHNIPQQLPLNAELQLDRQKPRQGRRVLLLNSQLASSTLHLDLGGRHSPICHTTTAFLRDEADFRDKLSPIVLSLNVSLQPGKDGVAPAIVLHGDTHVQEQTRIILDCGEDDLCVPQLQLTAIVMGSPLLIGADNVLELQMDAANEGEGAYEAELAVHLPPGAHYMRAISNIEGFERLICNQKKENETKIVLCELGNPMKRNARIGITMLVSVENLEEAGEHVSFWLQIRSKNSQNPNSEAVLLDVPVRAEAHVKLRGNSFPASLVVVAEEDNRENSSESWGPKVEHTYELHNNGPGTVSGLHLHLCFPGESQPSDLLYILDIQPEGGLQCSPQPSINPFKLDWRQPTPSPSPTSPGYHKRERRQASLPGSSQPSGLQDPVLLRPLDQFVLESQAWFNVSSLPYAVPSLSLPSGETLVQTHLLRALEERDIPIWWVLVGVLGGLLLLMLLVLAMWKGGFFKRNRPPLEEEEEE
Chain of dog platelets (A0A8I3PMU9 1-919): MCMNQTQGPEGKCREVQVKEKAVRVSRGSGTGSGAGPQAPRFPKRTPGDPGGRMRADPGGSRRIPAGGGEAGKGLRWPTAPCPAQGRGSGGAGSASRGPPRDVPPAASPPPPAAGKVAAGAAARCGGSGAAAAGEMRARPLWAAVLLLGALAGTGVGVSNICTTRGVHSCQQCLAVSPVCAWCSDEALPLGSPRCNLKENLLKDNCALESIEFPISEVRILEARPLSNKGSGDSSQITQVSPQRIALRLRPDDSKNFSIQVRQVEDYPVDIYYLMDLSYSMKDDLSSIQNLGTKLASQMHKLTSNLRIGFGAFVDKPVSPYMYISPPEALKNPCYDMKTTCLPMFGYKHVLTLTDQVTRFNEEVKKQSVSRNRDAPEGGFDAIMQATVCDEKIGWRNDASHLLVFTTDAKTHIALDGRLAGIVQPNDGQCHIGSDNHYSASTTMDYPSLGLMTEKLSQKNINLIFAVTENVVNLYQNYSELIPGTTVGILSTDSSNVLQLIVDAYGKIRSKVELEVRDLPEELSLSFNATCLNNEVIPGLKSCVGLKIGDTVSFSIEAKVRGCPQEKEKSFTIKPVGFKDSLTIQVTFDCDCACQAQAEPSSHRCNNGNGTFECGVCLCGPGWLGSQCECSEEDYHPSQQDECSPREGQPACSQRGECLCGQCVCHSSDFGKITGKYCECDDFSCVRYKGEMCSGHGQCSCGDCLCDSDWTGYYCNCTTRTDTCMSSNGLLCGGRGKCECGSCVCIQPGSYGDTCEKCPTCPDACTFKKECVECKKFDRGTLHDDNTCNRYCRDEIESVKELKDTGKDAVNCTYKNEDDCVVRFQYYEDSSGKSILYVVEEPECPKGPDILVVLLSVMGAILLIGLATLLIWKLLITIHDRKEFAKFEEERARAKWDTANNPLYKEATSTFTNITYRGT

In turn, `COc1cc(C)c(S(=O)(=O)NC(=N)NCCC[C@@H]2NC(=O)[C@@H]3CCCN3C(=O)[C@@H](Cc3ccccc3)NC(=O)[C@H](CC(=O)OC(C)(C)C)NC(=O)CNC(=O)[C@H](CCCNC(=N)NS(=O)(=O)c3c(C)cc(OC)c(C)c3C)NC(=O)[C@@H]3CCCN3C(=O)[C@@H](Cc3ccccc3)NC(=O)[C@H](CC(=O)OC(C)(C)C)NC(=O)CNC2=O)c(C)c1C` came in with a ring closure, crude yield in series [1] (from H-Asp(OtBu)-dPhe-Pro-Arg(Mtr)-Gly-Asp(OtBu)-dPhe-Pro-Arg(Mtr)-Gly-OH, 30-membered ring, PPA/NMM, 0.4 mM) of 100%.

As for `COc1cc(C)c(S(=O)(=O)NC(=N)NCCC[C@@H]2NC(=O)[C@H](Cc3ccccc3)NC(=O)[C@H](CC(=O)OC(C)(C)C)NC(=O)CNC(=O)[C@H](CCCNC(=N)NS(=O)(=O)c3c(C)cc(OC)c(C)c3C)NC(=O)[C@H](Cc3ccccc3)NC(=O)[C@H](CC(=O)OC(C)(C)C)NC(=O)CNC2=O)c(C)c1C`, the ring closure, crude yield in series [1] (from H-Asp(OtBu)-Phe-Arg(Mtr)-Gly-Asp(OtBu)-Phe-Arg(Mtr)-Gly-OH, 24-membered ring, PPA/NMM, 0.4 mM) amounted to 100%. `COc1cc(C)c(S(=O)(=O)NC(=N)NCCC[C@@H]2NC(=O)[C@H](Cc3ccccc3)NC(=O)[C@H](CC(=O)OC(C)(C)C)NC(=O)CNC(=O)[C@H](CCCNC(=N)NS(=O)(=O)c3ccc(C)cc3)N(C)C(=O)[C@H](Cc3ccccc3)NC(=O)[C@H](CC(=O)OC(C)(C)C)NC(=O)CNC2=O)c(C)c1C` gave a ring closure, crude yield in series [1] (from H-Asp(OtBu)-Phe-MeArg(Tos)-Gly-Asp(OtBu)-Phe-Arg(Mtr)-Gly-OH, 24-membered ring, PPA/NMM, 0.4 mM) of 95%. Turning to `N=C(N)NCCC[C@@H]1NC(=O)[C@@H]2CCCN2C(=O)[C@@H](Cc2ccccc2)NC(=O)[C@H](CC(=O)O)NC(=O)CNC(=O)[C@H](CCCNC(=N)N)NC(=O)[C@@H]2CCCN2C(=O)[C@@H](Cc2ccccc2)NC(=O)[C@H](CC(=O)O)NC(=O)CNC1=O` [Example 22, cyclo-(1,10)-Pro-Arg-Gly-Asp-D-Phe-Pro-Arg-Gly-Asp-D-Phe] (cyclo(RGD[dF]PRGD[dF]P)), the IC50 on dog platelets was > 200 µM.

For `N=C(N)NCCC[C@@H]1NC(=O)CNC(=O)[C@@H]2CCCN2C(=O)[C@H]2CCCN2C(=O)[C@H](CC(=O)O)NC(=O)CNC1=O` [Example 24, cyclo-(1,6)-Pro-Gly-Arg-Gly-Asp-D-Pro] (cyclo(RGD[dP]PG)), at dog platelets, the IC50 was > 200 µM. Turning to `N=C(N)NCCC[C@@H]1NC(=O)CNC(=O)[C@@H]2CCCN2C(=O)[C@H](CO)NC(=O)[C@H](CC(=O)O)NC(=O)CNC1=O` [Example 25, cyclo-(1,6)-Gly-Arg-Gly-Asp-Ser-Pro], the IC50 at dog platelets is > 200 µM. Take `C[C@H]1NC(=O)[C@H](CO)NC(=O)[C@H](CC(=O)O)NC(=O)CNC(=O)[C@H](CCCNC(=N)N)NC1=O` [Example 28, cyclo-(1,5)-D-Ala-Arg-Gly-Asp-Ser] (cyclo(RGDS[dA])): the IC50 on dog platelets was > 200 µM. For `COc1cc(C)c(S(=O)(=O)NC(=N)NCCC[C@@H]2NC(=O)[C@@H]3CCCN3C(=O)[C@@H](Cc3ccccc3)NC(=O)CNC(=O)[C@H](CC(=O)OC(C)(C)C)NC(=O)CNC2=O)c(C)c1C` [cyclo(1,6)-Asp(O-t-Bu)-Gly-D-Phe-Arg(Tos)-Gly], in series [1] (from H-Asp(OtBu)-Gly-dPhe-Pro-Arg(Mtr)-Gly-OH, 18-membered ring, PPA/NMM, 0.5 mM), the ring closure, crude yield came to 84%. Regarding `COc1cc(C)c(S(=O)(=O)NC(=N)NCCC[C@@H]2NC(=O)[C@H](C)NC(=O)[C@@H](COCc3ccccc3)NC(=O)[C@H](CC(=O)OC(C)(C)C)NC(=O)CNC2=O)c(C)c1C` [cyclo-(1,5)-Ala-Arg(Mtr)-Gly-Asp(O-t-Bu)-D-Ser(Bzl)], the ring closure, crude yield in series [1] (from H-Asp(OtBu)-dSer(Bzl)-Ala-Arg(Mtr)-Gly-OH, 15-membered ring, PPA/NMM, 0.4 mM) worked out at 67%.

Take `Cc1ccc(S(=O)(=O)NC(=N)NCCC[C@@H]2NC(=O)[C@@H](C)NC(=O)[C@H](COCc3ccccc3)NC(=O)[C@H](CC(=O)OCc3ccccc3)NC(=O)CNC2=O)cc1` [cyclo-(1,5)-D-Ala-Arg(Tos)-Gly-Asp(Bzl)-Ser(Bzl)]: the ring closure, crude yield in series [1] (from H-Asp(Bzl)-Ser(Bzl)-dAla-Arg(Tos)-Gly-OH, 15-membered ring, PPA/NMM, 0.4 mM) was 67%. As for `COc1cc(C)c(S(=O)(=O)NC(=N)NCCC[C@@H]2NC(=O)CNC(=O)[C@@H]3CCCN3C(=O)[C@H](COCc3ccccc3)NC(=O)[C@H](CC(=O)OC(C)(C)C)NC(=O)CNC2=O)c(C)c1C` [cyclo-(1,6)-Gly-Arg-Gly-Asp-Ser-Pro], the ring closure, crude yield in series [1] (from H-Asp(OtBu)-Ser(Bzl)-Pro-Gly-Arg(Mtr)-Gly-OH, 18-membered ring, PPA/NMM, 0.4 mM) was determined as 88%.

For the molecule `COc1cc(C)c(S(=O)(=O)NC(=N)NCCC[C@@H]2NC(=O)[C@@H]3CCCN3C(=O)CNC(=O)[C@H]3CCCN3C(=O)[C@H](CC(=O)OC(C)(C)C)NC(=O)CNC2=O)c(C)c1C` [cyclo-(1,6)-Gly-Pro-Arg-Gly-Asp-D-Pro], the ring closure, crude yield in series [1] (from H-Asp(OtBu)-dPro-Gly-Pro-Arg(Mtr)-Gly-OH, 18-membered ring, PPA/NMM, 0.4 mM) is 42%. Molecule `Cc1ccc(S(=O)(=O)NC(=N)NCCC[C@@H]2NC(=O)[C@@H]3CCCN3C(=O)[C@H]3CCCN3C(=O)CNC(=O)[C@H](CC(=O)OC(C)(C)C)NC(=O)CNC2=O)cc1` [cyclo-(1,6)-Pro-Arg(Tos)-Gly-Asp(O-t-Bu)-Gly-D-Pro] came in with a ring closure, crude yield in series [1] (from H-Asp(OtBu)-Gly-dPro-Pro-Arg(Tos)-Gly-OH, 18-membered ring, PPA/NMM, 0.57 mM) of 63%.

For the molecule `COc1cc(C)c(S(=O)(=O)NC(=N)NCCC[C@@H]2NC(=O)CNC(=O)[C@@H]3CCCN3C(=O)[C@H]3CCCN3C(=O)[C@H](CC(=O)OC(C)(C)C)NC(=O)CNC2=O)c(C)c1C` [cyclo-(1,6)-Pro-Gly-Arg(Mtr)-Gly-Asp(O-t-Bu)-D-Pro], in series [1] (from H-Asp(OtBu)-dPro-Pro-Gly-Arg(Mtr)-Gly-OH, 18-membered ring, PPA/NMM, 0.37 mM), the ring closure, crude yield came to 31%. As for “H-Gly-Arg(Tos)-Gly-Asp(Bzl)-Ser(Bzl)-Glu-BHA-resin”, the ring closure, crude yield in series [1] (setting [2]) amounted to 94%. Molecule “H-Gly-MeArg(Tos)-Gly-Asp(Bzl)-Ser(Bzl)-Glu-BHA-resin” had a ring closure, crude yield in series [1] (setting [2]) of 100%.
